Measured values from patent publication US11844801B2, “Oral compositions of MK2 pathway inhibitor for treatment of immune conditions” (priority 2020, dated 2023).
Where two headings read alike, the source gives them in different places.

Test system: IL-6
Experiment: LPS stimulated IL-6 production in human whole blood
Format: cell-based
Experimental: Compounds were serially diluted in 100% DMSO (Sigma-Aldrich, D2650) followed by a 50× dilution into DMEM/10% FBS (Gibco, 11965/26140). Vehicle consisted of DMSO at a final assay concentration of 0.1%. Pin tools (V&P Scientific, Inc., VP246) were placed in the wells and the plate was placed at 37° C. with 5% CO2, with gently shaking for five minutes, then pin tools were removed and saved. […] Pin tools were placed in the wells in the same orientation as the previous step and gently shook for five minutes at 37° C. with 5% CO2, then removed. […] The plasma was harvested and assayed for TNF-α, IL-1β, and IL-6 using Meso Scale Discovery Technology V-plex human cytokine kits according to the kit protocol. The kit plates were read using an MSD Sector S 6000 instrument. Calculations to establish cytokine calibration curves and to determine analyte concentrations in the samples were carried out using the MSD DISCOVERY WORKBENCH® analysis software.

**Q.** For `Cc1cnc(-c2ccnc(C(C)(C)O)n2)cc1-n1c(C)cc(OCc2ncc(F)cc2F)c(Cl)c1=O` (single isomer, unassigned) [ATI-450, 3-chloro-4-((3,5-difluoropyridin-2-yl)methoxy)-2′-(2-(2-hydroxypropan-2-yl)pyrimidin-4-yl)-5′,6-dimethyl-2H-[1,4′-bipyridin]-2-one], which IC50 (Human Whole Blood, LPS, 100 ng/mL, 4 or 24 hr, read-out: IC50, IL-6) is on record?
**A.** Its IC50 is 135 ± 97 nM.

**Q.** What about the IC50 (human whole blood, LPS 100 ng/mL, read-out: IC50, LPS-stimulated IL-6) of the same compound?
**A.** The IC50 was 10 to 100 nM.
